Experiments:
Type in all cases: cell-based
[1] = tested on: GP2D (KRAS G12D); experiment: Cell proliferation assay (CellTiter-Glo, 72 hours), GP2D; settings: GP2d, 72 h, 384-well, CellTiter-Glo 2.0
Method: (§1) Two thousand KRAS mutant cells per well were seeded in 384-well white plate and then treated with indicated compounds for 72 hours at 37° C. and 5% CO2. Cell proliferation was measured using CellTiter-Glo 2.0 luciferase-based ATP detection assay (Promega, Madison, WI) following the manufacturer's protocol. IC50 values were determined using Prism software (GraphPad Software, San Diego, CA).

[2] = tested on: AGS (G12D); experiment: Cell proliferation assay (CellTiter-Glo, 72 hours), AGS; settings: 72 h, 384-well, CellTiter-Glo 2.0
Method: as §1

[3] = tested on: SW620 (KRAS G12V); experiment: Cell proliferation assay (CellTiter-Glo, 72 hours), SW620; settings: Homo sapiens, SW-620, 72 h, 384-well, CellTiter-Glo 2.0
Method: as §1

IC50 [2]	IC50 [3]	Structure (SMILES)	IC50 [1]
623 nM	693 nM	C#Cc1c(F)ccc2cc(O)cc(-c3nc4c5c(nc(OC[C@@]67CCCN6C[C@H](F)C7)nc5c3F)N(C)[C@@H](C3CC3)CO4)c12 [Example 32, 4-[(9S)-9-cyclopropyl-4-fluoro-2-{[(2R,7aS)-2-fluorotetrahydro-1H-pyrrolizin-7a(5H)-yl]methoxy}-10-methyl-9,10-dihydro-8H-7-oxa-1,3,6,10-tetraazacyclohepta[1,2,3-de]naphthalen-5-yl]-5-ethynyl-6-fluoronaphthalen-2-ol]	293 nM
2840 nM	1530 nM	CCc1c(F)ccc2cc(O)cc(-c3nc4c5c(nc(OC[C@@]67CCCN6C[C@H](F)C7)nc5c3F)N[C@@H](C3CC3)CO4)c12 [Example 33, 4-[(9S)-9-cyclopropyl-4-fluoro-2-{[(2R,7aS)-2-fluorotetrahydro-1H-pyrrolizin-7a(5H)-yl]methoxy}-9,10-dihydro-8H-7-oxa-1,3,6,10-tetraazacyclohepta[1,2,3-de]naphthalen-5-yl]-5-ethyl-6-fluoronaphthalen-2-ol]	962 nM
> 3000 nM	> 3000 nM	C#Cc1c(F)ccc2cc(O)cc(-c3nc4c5c(nc(OC[C@@]67CCCN6C[C@H](F)C7)nc5c3F)N[C@@H](C3CCC3)CO4)c12 [Example 35, 4-[(9S)-9-cyclobutyl-4-fluoro-2-{[(2R,7aS)-2-fluorotetrahydro-1H-pyrrolizin-7a(5H)-yl]methoxy}-9,10-dihydro-8H-7-oxa-1,3,6,10-tetraazacyclohepta[1,2,3-de]naphthalen-5-yl]-5-ethynyl-6-fluoronaphthalen-2-ol]	> 3000 nM
43.1 nM	42 nM	CCc1c(F)ccc2cc(O)cc(-c3nc4c5c(nc(OC[C@@]67CCCN6C/C(=C\F)C7)nc5c3F)N3CCCC[C@H]3CO4)c12 [Example 41, 5-ethyl-6-fluoro-4-[(8aS)-4-fluoro-2-{[(2Z,7aS)-2-(fluoromethylidene)tetrahydro-1H-pyrrolizin-7a(5H)-yl]methoxy}-8,8a,9,10,11,12-hexahydro-7-oxa-1,3,6,12a-tetraazabenzo[4,5]cyclohepta[1,2,3-de]naphthalen-5-yl]naphthalen-2-ol]	20.7 nM
789 nM	> 3000 nM	C#Cc1c(F)ccc2cc(O)cc(-c3nc4c5c(nc(OC[C@@]67CCCN6C[C@H](F)C7)nc5c3F)N[C@@H](C(C)C)CO4)c12 [Example 47, 5-ethynyl-6-fluoro-4-[(9S)-4-fluoro-2-{[(2R,7aS)-2-fluorotetrahydro-1H-pyrrolizin-7a(5H)-yl]methoxy}-9-(propan-2-yl)-9,10-dihydro-8H-7-oxa-1,3,6,10-tetraazacyclohepta[1,2,3-de]naphthalen-5-yl]naphthalen-2-ol]	≥ 6000 nM
113 nM		C#Cc1c(F)ccc2cc(O)cc(-c3nc4c5c(nc(OC[C@@]67CCCN6C[C@H](F)C7)nc5c3F)N3CCC[C@@](C)(O)[C@H]3CO4)c12 [Example 53, (8aR,9R)-5-(8-ethynyl-7-fluoro-3-hydroxynaphthalen-1-yl)-4-fluoro-2-{[(2R,7aS)-2-fluorotetrahydro-1H-pyrrolizin-7a(5H)-yl]methoxy}-9-methyl-8,8a,9,10,11,12-hexahydro-7-oxa-1,3,6,12a-tetraazabenzo[4,5]cyclohepta[1,2,3-de]naphthalen-9-ol]	34.5 nM
> 3000 nM		C#Cc1c(F)ccc2cc(O)cc(-c3nc4c5c(nc(OC[C@@]67CCCN6C[C@H](F)C7)nc5c3F)N3CCC[C@](C)(O)[C@@H]3CO4)c12 [Example 113, (8aS,9S)-5-(8-ethynyl-7-fluoro-3-hydroxynaphthalen-1-yl)-4-fluoro-2-{[(2R,7aS)-2-fluorotetrahydro-1H-pyrrolizin-7a(5H)-yl]methoxy}-9-methyl-8,8a,9,10,11,12-hexahydro-7-oxa-1,3,6,12a-tetraazabenzo[4,5]cyclohepta[1,2,3-de]naphthalen-9-ol]	> 3000 nM

Continued, compound first:

Structure (SMILES)	IC50 [2]	IC50 [3]	IC50 [1]
C#Cc1c(F)ccc2cc(O)cc(-c3nc4c5c(nc(OC[C@@]67CCCN6C[C@H](F)C7)nc5c3F)N(C)[C@@H](CO)CO4)c12 [Example 27, 5-ethynyl-6-fluoro-4-[(9S)-4-fluoro-2-{[(2R,7aS)-2-fluorotetrahydro-1H-pyrrolizin-7a(5H)-yl]methoxy}-9-(hydroxymethyl)-10-methyl-9,10-dihydro-8H-7-oxa-1,3,6,10-tetraazacyclohepta[1,2,3-de]naphthalen-5-yl]naphthalen-2-ol]	> 3000 nM		> 3000 nM
CCc1c(F)ccc2cc(O)cc(-c3nc4c5c(nc(OC[C@@]67CCCN6C[C@H](F)C7)nc5c3F)N(C)[C@@H](CO)CO4)c12 [Example 28, 5-ethyl-6-fluoro-4-[(9S)-4-fluoro-2-{[(2R,7aS)-2-fluorotetrahydro-1H-pyrrolizin-7a(5H)-yl]methoxy}-9-(hydroxymethyl)-10-methyl-9,10-dihydro-8H-7-oxa-1,3,6,10-tetraazacyclohepta[1,2,3-de]naphthalen-5-yl]naphthalen-2-ol]	> 3000 nM	> 3000 nM	> 3000 nM
C#Cc1c(F)ccc2cc(O)cc(-c3nc4c5c(nc(OC[C@@]67CCCN6C[C@H](F)C7)nc5c3F)N3C[C@H](O)CC[C@H]3CO4)c12 [Example 29, (8aS,11R)-5-(8-ethynyl-7-fluoro-3-hydroxynaphthalen-1-yl)-4-fluoro-2-{[(2R,7aS)-2-fluorotetrahydro-1H-pyrrolizin-7a(5H)-yl]methoxy}-8,8a,9,10,11,12-hexahydro-7-oxa-1,3,6,12a-tetraazabenzo[4,5]cyclohepta[1,2,3-de]naphthalen-11-ol]	760 nM	> 3000 nM	364 nM
C#Cc1c(F)ccc2cc(O)cc(-c3nc4c5c(nc(OC[C@@]67CCCN6C[C@H](F)C7)nc5c3F)N3C[C@](C)(O)CC[C@H]3CO4)c12 [Example 30, (8aS,11R)-5-(8-ethynyl-7-fluoro-3-hydroxynaphthalen-1-yl)-4-fluoro-2-{[(2R,7aS)-2-fluorotetrahydro-1H-pyrrolizin-7a(5H)-yl]methoxy}-11-methyl-8,8a,9,10,11,12-hexahydro-7-oxa-1,3,6,12a-tetraazabenzo[4,5]cyclohepta[1,2,3-de]naphthalen-11-ol]	97.3 nM	139 nM	50.5 nM
C#Cc1c(F)ccc2cc(O)cc(-c3nc4c5c(nc(OC[C@@]67CCCN6C[C@H](F)C7)nc5c3F)N[C@@H](C3CC3)CO4)c12 [Example 31, 4-[(9S)-9-cyclopropyl-4-fluoro-2-{[(2R,7aS)-2-fluorotetrahydro-1H-pyrrolizin-7a(5H)-yl]methoxy}-9,10-dihydro-8H-7-oxa-1,3,6,10-tetraazacyclohepta[1,2,3-de]naphthalen-5-yl]-5-ethynyl-6-fluoronaphthalen-2-ol]	> 3000 nM	> 3000 nM	1880 nM
C#Cc1c(F)ccc2cc(O)cc(-c3nc4c5c(nc(OC[C@@]67CCCN6C[C@H](F)C7)nc5c3F)N3CC(F)(F)CC[C@H]3CO4)c12 [Example 98, 5-ethynyl-6-fluoro-4-[(8aS)-4,11,11-trifluoro-2-{[(2R,7aS)-2-fluorotetrahydro-1H-pyrrolizin-7a(5H)-yl]methoxy}-8,8a,9,10,11,12-hexahydro-7-oxa-1,3,6,12a-tetraazabenzo[4,5]cyclohepta[1,2,3-de]naphthalen-5-yl]naphthalen-2-ol]			114 nM
